System: 885512-296-R-J2-PDC complex spheroid viability
Experiment: Anticancer human tumor 885512-296-R-J2-PDC patient-derived breast carcinoma cell line growth inhibition
Conditions: for IC50: curve of first compound; for viability, T/C: stronger effect = lower value; active means viability on the fitted dose curve at most 10% of control; inactive means the rest
In short: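 Complex spheroids of tumor cells with HUVEC and human MSCs, exposed to iadademstat combined with other agents. Each agent tested in half-log steps from near clinical Cmax (else 10 microM top), DMSO ≤0.25%.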

[1] = second compound 0.1 µM, first compound 0.0316 µM
[2] = second compound 0.1 µM, first compound 0.1 µM
[3] = second compound 0.1 µM, first compound 0.316 µM
[4] = second compound 0.1 µM, first compound 1 µM
[5] = second compound 0.1 µM, first compound 3.16 µM
[6] = second compound 0.1 µM, first compound 10 µM
[7] = second compound 0.316 µM, first compound 0.0316 µM
[8] = second compound 0.316 µM, first compound 0.1 µM
[9] = second compound 0.316 µM, first compound 0.316 µM
[10] = second compound 0.316 µM, first compound 1 µM
[11] = second compound 0.316 µM, first compound 3.16 µM
[12] = second compound 0.316 µM, first compound 10 µM
[13] = second compound 1 µM, first compound 0.0316 µM
[14] = second compound 1 µM, first compound 0.1 µM
[15] = second compound 1 µM, first compound 0.316 µM
[16] = second compound 1 µM, first compound 1 µM
[17] = second compound 1 µM, first compound 3.16 µM
[18] = second compound 1 µM, first compound 10 µM
[19] = second compound 3.16 µM, first compound 0.0316 µM
[20] = second compound 3.16 µM, first compound 0.1 µM
[21] = second compound 3.16 µM, first compound 0.316 µM
[22] = second compound 3.16 µM, first compound 1 µM
[23] = second compound 3.16 µM, first compound 3.16 µM
[24] = second compound 3.16 µM, first compound 10 µM
[25] = second compound 10 µM, first compound 0.0316 µM
[26] = second compound 10 µM, first compound 0.1 µM
[27] = second compound 10 µM, first compound 0.316 µM
[28] = second compound 10 µM, first compound 1 µM
[29] = second compound 10 µM, first compound 3.16 µM
[30] = second compound 10 µM, first compound 10 µM
[31] = second compound 0.1 µM, first compound 0.00949 µM
[32] = second compound 0.1 µM, first compound 0.03 µM
[33] = second compound 0.1 µM, first compound 0.0949 µM
[34] = second compound 0.1 µM, first compound 0.3 µM
[35] = second compound 0.316 µM, first compound 0.00949 µM
[36] = second compound 0.316 µM, first compound 0.03 µM
[37] = second compound 0.316 µM, first compound 0.0949 µM
[38] = second compound 0.316 µM, first compound 0.3 µM
[39] = second compound 1 µM, first compound 0.00949 µM
[40] = second compound 1 µM, first compound 0.03 µM
[41] = second compound 1 µM, first compound 0.0949 µM
[42] = second compound 1 µM, first compound 0.3 µM
[43] = second compound 3.16 µM, first compound 0.00949 µM
[44] = second compound 3.16 µM, first compound 0.03 µM
[45] = second compound 3.16 µM, first compound 0.0949 µM
[46] = second compound 3.16 µM, first compound 0.3 µM
[47] = second compound 10 µM, first compound 0.00949 µM
[48] = second compound 10 µM, first compound 0.03 µM
[49] = second compound 10 µM, first compound 0.0949 µM
[50] = second compound 10 µM, first compound 0.3 µM
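Further: spheroids exposed to agents for 7 days before viability read.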

CC1(C)CCC(CN2CCN(c3ccc(C(=O)NS(=O)(=O)c4ccc(NCC5CCOCC5)c([N+](=O)[O-])c4)c(Oc4cnc5[nH]ccc5c4)c3)CC2)=C(c2ccc(Cl)cc2)C1 + NC1CCC(NC2CC2c2ccccc2)CC1
4900 nM: IC50 (second compound 1 µM)
3840 nM: IC50 (second compound 10 µM)
4940 nM: IC50 (second compound 3.16 µM)
inactive: viability, T/C [1] 106% | viability, T/C [2] 109% | viability, T/C [3] 115% | viability, T/C [4] 98.9% | viability, T/C [5] 72.8% | viability, T/C [6] 15.8% | viability, T/C [7] 112% | viability, T/C [8] 116% | viability, T/C [9] 120% | viability, T/C [10] 90.1% | viability, T/C [11] 72.2% | viability, T/C [12] 16% | viability, T/C [13] 110% | viability, T/C [14] 115% | viability, T/C [15] 116% | viability, T/C [16] 93.4% | viability, T/C [17] 73.1% | viability, T/C [18] 14.7% | viability, T/C [19] 111% | viability, T/C [20] 107% | viability, T/C [21] 114% | viability, T/C [22] 98.7% | viability, T/C [23] 71% | viability, T/C [24] 17.4% | viability, T/C [25] 84.3% | viability, T/C [26] 82.8% | viability, T/C [27] 77.9% | viability, T/C [28] 87.4% | viability, T/C [29] 56.2% | viability, T/C [30] 19.9%
4830 nM: IC50 (second compound 0.316 µM)
4990 nM: IC50 (second compound 0.1 µM)

CC1COCCN1c1cc(C2(S(C)(=N)=O)CC2)nc(-c2ccnc3[nH]ccc23)n1 (stereo not given) + NC1CCC(NC2CC2c2ccccc2)CC1
inactive: viability, T/C [1] 98.8% | viability, T/C [2] 77.3% | viability, T/C [3] 15.1% | viability, T/C [7] 94.7% | viability, T/C [8] 71.4% | viability, T/C [9] 15.3% | viability, T/C [13] 98.8% | viability, T/C [14] 75.8% | viability, T/C [15] 17.4% | viability, T/C [19] 108% | viability, T/C [20] 56.5% | viability, T/C [21] 13.4% | viability, T/C [25] 84.5% | viability, T/C [26] 59.1%
119 nM: IC50 (second compound 3.16 µM)
active: viability, T/C [4] 7.78% | viability, T/C [5] 9.98% | viability, T/C [6] 4.57% | viability, T/C [10] 4.43% | viability, T/C [11] 4.53% | viability, T/C [12] 7.27% | viability, T/C [16] 5.72% | viability, T/C [17] 7% | viability, T/C [18] 4.61% | viability, T/C [22] 5.73% | viability, T/C [23] 4.8% | viability, T/C [24] 4.21% | viability, T/C [27] 9.91% | viability, T/C [28] 3.2% | viability, T/C [29] 3.14% | viability, T/C [30] 1.66%
155 nM: IC50 (second compound 0.316 µM)
166 nM: IC50 (second compound 0.1 µM) | IC50 (second compound 1 µM)
124 nM: IC50 (second compound 10 µM)

CCN(c1cc(-c2ccc(CN3CCOCC3)cc2)cc(C(=O)NCc2c(C)cc(C)[nH]c2=O)c1C)C1CCOCC1 + NC1CCC(NC2CC2c2ccccc2)CC1
2250 nM: IC50 (second compound 1 µM)
1820 nM: IC50 (second compound 0.1 µM)
> 3000 nM: IC50 (second compound 10 µM)
1740 nM: IC50 (second compound 0.316 µM)
2080 nM: IC50 (second compound 3.16 µM)
inactive: viability, T/C [31] 118% | viability, T/C [32] 135% | viability, T/C [33] 104% | viability, T/C [34] 117% | viability, T/C (second compound 0.1 µM, first compound 0.949 µM) 98.6% | viability, T/C (second compound 0.1 µM, first compound 3 µM) 12.3% | viability, T/C [35] 131% | viability, T/C [36] 114% | viability, T/C [37] 127% | viability, T/C [38] 94.5% | viability, T/C (second compound 0.316 µM, first compound 0.949 µM) 79.1% | viability, T/C (second compound 0.316 µM, first compound 3 µM) 26.1% | viability, T/C [39] 135% | viability, T/C [40] 107% | viability, T/C [41] 122% | viability, T/C [42] 87.2% | viability, T/C (second compound 1 µM, first compound 0.949 µM) 80.2% | viability, T/C (second compound 1 µM, first compound 3 µM) 39.9% | viability, T/C [43] 141% | viability, T/C [44] 125% | viability, T/C [45] 106% | viability, T/C [46] 102% | viability, T/C (second compound 3.16 µM, first compound 0.949 µM) 78.3% | viability, T/C (second compound 3.16 µM, first compound 3 µM) 35.8% | viability, T/C [47] 110% | viability, T/C [48] 95.4% | viability, T/C [49] 85.8% | viability, T/C [50] 82.7% | viability, T/C (second compound 10 µM, first compound 0.949 µM) 78.5% | viability, T/C (second compound 10 µM, first compound 3 µM) 55%

Nc1ncn(C2CC(O)C(CO)S2)c(=O)n1 (stereo not given) + NC1CCC(NC2CC2c2ccccc2)CC1
inactive: viability, T/C (second compound 0.1 µM, first compound 0.000949 µM) 81.1% | viability, T/C (second compound 0.1 µM, first compound 0.003 µM) 67.9% | viability, T/C [31] 32.5% | viability, T/C [32] 15.5% | viability, T/C [33] 12.6% | viability, T/C [34] 11.3% | viability, T/C (second compound 0.316 µM, first compound 0.000949 µM) 93% | viability, T/C (second compound 0.316 µM, first compound 0.003 µM) 59% | viability, T/C [35] 36.4% | viability, T/C [36] 20.6% | viability, T/C [37] 12.4% | viability, T/C (second compound 1 µM, first compound 0.000949 µM) 99.2% | viability, T/C (second compound 1 µM, first compound 0.003 µM) 62.2% | viability, T/C [39] 32.8% | viability, T/C [40] 17.3% | viability, T/C [41] 11.5% | viability, T/C (second compound 3.16 µM, first compound 0.000949 µM) 83% | viability, T/C (second compound 3.16 µM, first compound 0.003 µM) 61.6% | viability, T/C [43] 33.3% | viability, T/C [44] 18.8% | viability, T/C [45] 12.4% | viability, T/C (second compound 10 µM, first compound 0.000949 µM) 79.8% | viability, T/C (second compound 10 µM, first compound 0.003 µM) 47.5% | viability, T/C [47] 23.8% | viability, T/C [48] 11.2%
active: viability, T/C [38] 10% | viability, T/C [42] 6.83% | viability, T/C [46] 8.51% | viability, T/C [49] 9.62% | viability, T/C [50] 6.05%
4.84 nM: IC50 (second compound 1 µM)
2.75 nM: IC50 (second compound 10 µM)
4.82 nM: IC50 (second compound 3.16 µM)
5.37 nM: IC50 (second compound 0.1 µM)
4.73 nM: IC50 (second compound 0.316 µM)

— PubChem BioAssay AID1918946 (Molecular Pharmacology Branch, DTP, NCI, 2023)
